Measured values as given in patent US20150197492A1, “NOVEL INDENO[1,2-c]QUINOLIN-11-ONE DERIVATIVES, PREPARATION METHOD AND APPLICATION THEREOF” (National Defense Medical Center, priority 2014, published 2015).

Tests used:
Assay type in all cases: cell-based
NCI-H460 = experiment: cells
786-0 = experiment: cells
OVCAR-8 = experiment: cells
OVCAR-5 = experiment: cells
UO-31 = experiment: cells
MOLT-4 = experiment: cells
NCI-H23 = experiment: cells
SK-MEL-5 = experiment: cells
SN12C = experiment: cells
T-47D = experiment: cells
COLO 205 = experiment: cells
ACHN = experiment: cells
PC-3 = experiment: cells
K-562 = experiment: cells
RXF 393 = experiment: cells; details: RXF 393 (Renal Cancer), 10 μM, 48 hours
SK-OV-3 = experiment: cells
NCI-H322M = experiment: cells
SR = experiment: cells
NCI-H522 = experiment: cells
HOP-92 = experiment: cells; details: Non-Small Cell Lung Cancer HOP-92
OVCAR-3 = experiment: cells; details: OVCAR-3 (Ovarian Cancer), 10 μM, 48 hours
MDA-MB-468 = experiment: cells
SNB-75 = experiment: cells
M14 = experiment: cells
OVCAR-4 = experiment: cells
RPMI-8226 = experiment: cells
SNB-19 = experiment: cells
SK-MEL-2 = experiment: cells; details: Melanoma SK-MEL-2
TK-10 = experiment: cells
SW-620 = experiment: cells
LOX IMVI = experiment: cells; details: Melanoma LOX IMV1
[1] = tested on: 55 to 60 cancer cell lines; details: 10 μM
[2] = Homo sapiens, Non-Small Cell Lung Cancer NCI-H23
[3] = Homo sapiens, K562, Leukemia K-562
[4] = Homo sapiens, Colon Cancer SW-620

CCN(CC)CCNc1nc2ccccc2c2c1-c1ccc(Cl)cc1C2=O [SJ-3, 6-(2-(Diethylamino)ethylamino)-9-chloro-11H-indeno[1,2-c]quinolin-11-one]
GI50 (NCI-H460; Homo sapiens, Non-Small Cell Lung Cancer NCI-460): 5.15 µM
CC50 (NCI-H460; Homo sapiens, Non-Small Cell Lung Cancer NCI-460, read-out: LC50 (the source's name)): 6.74 µM
growth percentage (NCI-H460; NCI-H460 (Non-Small Cell Lung Cancer), 10 μM, 48 hours): 25.15%
TGI (NCI-H460; Non-Small Cell Lung Cancer NCI-460): 3.20 µM
growth percentage (786-0; 786-0 (Renal Cancer), 10 μM, 48 hours): 74.13%
GI50 (786-0; Homo sapiens, 786-0, Renal Cancer 786-O): 26.8 µM
CC50 (786-0; Homo sapiens, 786-0, Renal Cancer 786-O, read-out: LC50 (the source's name)): 6.01 µM
TGI (786-0; Renal Cancer 786-O): 3.29 µM
GI50 (OVCAR-8; Homo sapiens, Ovarian Cancer OVCAR-8): 13.8 µM
CC50 (OVCAR-8; Homo sapiens, Ovarian Cancer OVCAR-8, read-out: LC50 (the source's name)): 7.76 µM
growth percentage (OVCAR-8; OVCAR-8 (Ovarian Cancer), 10 μM, 48 hours): 61.36%
TGI (OVCAR-8; Ovarian Cancer OVCAR-8): 3.63 µM
GI50 (OVCAR-5; Homo sapiens, Ovarian Cancer OVCAR-5): 21.5 µM
CC50 (OVCAR-5; Homo sapiens, Ovarian Cancer OVCAR-5, read-out: LC50 (the source's name)): 6.52 µM
growth percentage (OVCAR-5; OVCAR-5 (Ovarian Cancer), 10 μM, 48 hours): 89.34%
TGI (OVCAR-5; Ovarian Cancer OVCAR-5): 3.32 µM
GI50 (UO-31; Homo sapiens, Renal Cancer UO-31): 3.61 µM
CC50 (UO-31; Homo sapiens, Renal Cancer UO-31, read-out: LC50 (the source's name)): 6.48 µM
TGI (UO-31; Renal Cancer UO-31): 2.88 µM
growth percentage (UO-31; UO-31 (Renal Cancer), 10 μM, 48 hours): 25.86%
GI50 (MOLT-4; Homo sapiens, Leukemia MOLT-4): 6.24 µM
LC50 (concentration killing 50% of cells) (MOLT-4; Homo sapiens, Leukemia MOLT-4): 7.91 µM
TGI (MOLT-4; Leukemia MOLT-4): 3.43 µM
growth percentage (MOLT-4; MOLT-4 (Leukemia), 10 μM, 48 hours): 34.63%
GI50 (NCI-H23; [2]): 2.63 µM
LC50 (NCI-H23; [2]): 8.35 µM
growth percentage (NCI-H23; NCI-H23 (Non-Small Cell Lung Cancer), 10 μM, 48 hours): 80.63%
TGI (NCI-H23; Non-Small Cell Lung Cancer NCI-H23): 4.00 µM
GI50 (SK-MEL-5; Homo sapiens, Melanoma SK-MEL-5): 1.15 µM
TGI (SK-MEL-5; Melanoma SK-MEL-5): 2.61 µM
growth percentage (SK-MEL-5; SK-MEL-5 (Melanoma), 10 μM, 48 hours): 82.51%
GI50 (SN12C; Homo sapiens, Renal Cancer SN12C): 4.12 µM
CC50 (SN12C; Homo sapiens, Renal Cancer SN12C, read-out: LC50 (the source's name)): 6.16 µM
TGI (SN12C; Renal Cancer SN12C): 2.87 µM
growth percentage (SN12C; SN12C (Renal Cancer), 10 μM, 48 hours): 61.60%
TGI (T-47D; Breast Cancer T-47D): 3.56 µM
GI50 (T-47D; Homo sapiens, T47D, Breast Cancer T-47D): 17.8 µM
CC50 (T-47D; Homo sapiens, T47D, Breast Cancer T-47D, read-out: LC50 (the source's name)): 7.19 µM
growth percentage (T-47D; T-47D (Breast Cancer), 10 μM, 48 hours): 43.28%
growth percentage (COLO 205; COLO 205 (Colon Cancer), 10 μM, 48 hours): 45.69%
GI50 (COLO 205; Homo sapiens, Colon Cancer COLO 205): 2.41 µM
growth percentage (ACHN; ACHN (Renal Cancer), 10 μM, 48 hours): 55.86%
GI50 (ACHN; Homo sapiens, Renal Cancer ACHN): 6.44 µM
CC50 (ACHN; Homo sapiens, Renal Cancer ACHN, read-out: LC50 (the source's name)): 5.89 µM
TGI (ACHN; Renal Cancer ACHN): 3.04 µM
GI50 (PC-3; Homo sapiens, Prostate Cancer PC-3): 12.5 µM
CC50 (PC-3; Homo sapiens, Prostate Cancer PC-3, read-out: LC50 (the source's name)): 8.98 µM
growth percentage (PC-3; PC-3 (Prostate Cancer), 10 μM, 48 hours): 41.01%
TGI (PC-3; Prostate Cancer PC-3): 3.82 µM
GI50 (K-562; [3]): 8.75 µM
LC50 (lethal concentration, 50% cell kill) (K-562; [3]): 7.46 µM
growth percentage (K-562; K-562 (Leukemia), 10 μM, 48 hours): 45.29%
TGI (K-562; Leukemia K-562): 3.61 µM
growth percentage (RXF 393): 51.90%
GI50 (SK-OV-3; Homo sapiens, Ovarian Cancer SK-OV-3): 35.9 µM
CC50 (SK-OV-3; Homo sapiens, Ovarian Cancer SK-OV-3, read-out: LC50 (the source's name)): 17.2 µM
TGI (SK-OV-3; Ovarian Cancer SK-OV-3): 5.57 µM
growth percentage (SK-OV-3; SK-OV-3 (Ovarian Cancer), 10 μM, 48 hours): 84.20%
GI50 (NCI-H322M; Homo sapiens, Non-Small Cell Lung Cancer NCI-H322M): 34.5 µM
CC50 (NCI-H322M; Homo sapiens, Non-Small Cell Lung Cancer NCI-H322M, read-out: LC50 (the source's name)): 36.2 µM
growth percentage (NCI-H322M; NCI-H322M (Non-Small Cell Lung Cancer), 10 μM, 48 hours): 69.83%
TGI (NCI-H322M; Non-Small Cell Lung Cancer NCI-H322M): 13.10 µM
GI50 (SR; Homo sapiens, Leukemia SR): 5.05 µM
LC50 (50% lethal concentration) (SR; Homo sapiens, Leukemia SR): 11.6 µM
TGI (SR; Leukemia SR): 4.06 µM
growth percentage (SR; SR (Leukemia), 10 μM, 48 hours): 46.92%
GI50 (NCI-H522; Homo sapiens, Non-Small Cell Lung Cancer NCI-H522): 27.6 µM
CC50 (NCI-H522; Homo sapiens, Non-Small Cell Lung Cancer NCI-H522, read-out: LC50 (the source's name)): 7.23 µM
growth percentage (NCI-H522; NCI-H522 (Non-Small Cell Lung Cancer), 10 μM, 48 hours): 77.39%
TGI (NCI-H522; Non-Small Cell Lung Cancer NCI-H522): 3.80 µM
GI50 (HOP-92; Homo sapiens): 3.08 µM
LC50 (HOP-92; Homo sapiens): 25.1 µM
TGI (HOP-92): 5.80 µM
growth percentage (OVCAR-3): 73.13%
TGI (MDA-MB-468; Breast Cancer MDA-MB-468): 3.07 µM
GI50 (MDA-MB-468; Homo sapiens, Breast Cancer MDA-MB-468): 1.71 µM
growth percentage (MDA-MB-468; MDA-MB-468 (Breast Cancer), 10 μM, 48 hours): 33.81%
TGI (SNB-75; CNS Cancer SNB-75): 2.35 µM
GI50 (SNB-75; Homo sapiens, CNS Cancer SNB-75): 3.25 µM
CC50 (SNB-75; Homo sapiens, CNS Cancer SNB-75, read-out: LC50 (the source's name)): 4.86 µM
growth percentage (SNB-75; SNB-75 (CNS Cancer), 10 μM, 48 hours): 71.52%
GI50 (M14; Homo sapiens, Melanoma M14): 16.5 µM
CC50 (M14; Homo sapiens, Melanoma M14, read-out: LC50 (the source's name)): 19.3 µM
growth percentage (M14; M14 (Melanoma), 10 μM, 48 hours): 76.44%
TGI (M14; Melanoma M14): 5.48 µM
GI50 (OVCAR-4; Homo sapiens, Ovarian Cancer OVCAR-4): 2.99 µM
CC50 (OVCAR-4; Homo sapiens, Ovarian Cancer OVCAR-4, read-out: LC50 (the source's name)): 5.68 µM
growth percentage (OVCAR-4; OVCAR-4 (Ovarian Cancer), 10 μM, 48 hours): 52.50%
TGI (OVCAR-4; Ovarian Cancer OVCAR-4): 2.79 µM
GI50 (RPMI-8226; Homo sapiens, Leukemia RPMI-8226): 20.2 µM
CC50 (RPMI-8226; Homo sapiens, Leukemia RPMI-8226, read-out: LC50 (the source's name)): 9.73 µM
TGI (RPMI-8226; Leukemia RPMI-8226): 4.31 µM
growth percentage (RPMI-8226; RPMI-8226 (Leukemia), 10 μM, 48 hours): 81.94%
TGI (SNB-19; CNS Cancer SNB-19): 3.42 µM
GI50 (SNB-19; Homo sapiens, CNS Cancer SNB-19): 18.2 µM
growth percentage (SNB-19; SNB-19 (CNS Cancer), 10 μM, 48 hours): 94.02%
GI50 (SK-MEL-2; Homo sapiens): 37.7 µM
CC50 (SK-MEL-2; Homo sapiens, read-out: LC50 (the source's name)): 10.4 µM
TGI (SK-MEL-2): 4.73 µM
GI50 (TK-10; Homo sapiens, Renal Cancer TK-10): 24.6 µM
CC50 (TK-10; Homo sapiens, Renal Cancer TK-10, read-out: LC50 (the source's name)): 6.38 µM
TGI (TK-10; Renal Cancer TK-10): 3.70 µM
growth percentage (TK-10; TK-10 (Renal Cancer), 10 μM, 48 hours): 95.55%
TGI (SW-620; Colon Cancer SW-620): 3.06 µM
GI50 (SW-620; [4]): 5.12 µM
LC50 (concentration killing 50% of cells) (SW-620; [4]): 6.67 µM
growth percentage (SW-620; SW-620 (Colon Cancer), 10 μM, 48 hours): 43.72%
GI50 (LOX IMVI; Homo sapiens, LOX IMVI): 6.04 µM
CC50 (LOX IMVI; Homo sapiens, LOX IMVI, read-out: LC50 (the source's name)): 6.02 µM
TGI (LOX IMVI): 3.04 µM
Mean (mean growth percentage of the tested cancer cell lines) ([1]; 48 hours, all tested cell lines): 62.4%
cytotoxicity in the first stage (in words) ([1]; basis for selection for the five-dose test): potential cytotoxicity
